# From ChEMBL document CHEMBL1142878, “Synthesis and cytotoxicity evaluation of substituted pyridazino[4,5-b]phenazine-5,12-diones and tri/tetra-azabenzofluorene-5,6-diones” (Eur J Med Chem, 2007)
# How the values were obtained:
# Assay type in all cases: functional, cell-based
# [1] = test system: SK-MEL-2; assay: Anticancer activity against human SK-MEL-2 cells after 48 hrs by SRB assay; conditions: SK-MEL-2, 48 h
# [2] = test system: XF498; assay: Anticancer activity against human XF498 cells after 48 hrs by SRB assay; conditions: XF498, 48 h
# [3] = test system: HCT-15; assay: Anticancer activity against human HCT15 cells after 48 hrs by SRB assay; conditions: HCT-15, 48 h
# [4] = test system: SK-OV-3; assay: Anticancer activity against human SKOV3 cells after 48 hrs by SRB assay; conditions: SK-OV-3, 48 h
# [5] = test system: A549; assay: Anticancer activity against human A549 cells after 48 hrs by SRB assay; conditions: A549, 48 h
Structure (SMILES),IC50 [1],IC50 [3],IC50 [4],IC50 [5],IC50 [2]
CCOc1cccc2nc3c(nc12)C(=O)c1cnncc1C3=O,15 nM,30 nM,32 nM,53 nM,29 nM
O=C1C(=O)c2c(nc3cnccn23)-c2ncccc21,114 nM,123 nM,18 nM,98 nM,92 nM
O=C1c2cnncc2C(=O)c2nc3cc4c(cc3nc21)OCO4,151 nM,116 nM,41 nM,138 nM,118 nM
O=C1C(=O)c2c(nc3c(C(=O)O)cccn23)-c2ncccc21,125 nM,122 nM,56 nM,117 nM,95 nM
Cc1cccc2nc3c(nc12)C(=O)c1cnncc1C3=O,34 nM,18 nM,70 nM,29 nM,21 nM
COc1cc(OC)c2nc3c(nc2c1)C(=O)c1cnncc1C3=O,38 nM,26 nM,70 nM,44 nM,33 nM
CN(C)c1ccc2nc3c(nc2c1)C(=O)c1cnncc1C3=O,88 nM,24 nM,31 nM,51 nM,70 nM
CCc1cccc2nc3c(nc12)C(=O)c1cnncc1C3=O,19 nM,12 nM,34 nM,10 nM,13 nM
O=C1c2cnncc2C(=O)c2nc3cc(C(F)(F)F)ccc3nc21,116 nM,195 nM,79 nM,174 nM,116 nM
Cc1ccc2nc3c(nc2c1C)C(=O)c1cnncc1C3=O,12 nM,10 nM,19 nM,13 nM,13 nM
O=C1C(=O)c2c(nc3ccc(Cl)cn23)-c2ncccc21,141 nM,134 nM,46 nM,126 nM,124 nM
Cc1cccc2nc3c(n12)C(=O)C(=O)c1cccnc1-3,1360 nM,1450 nM,1650 nM,1280 nM,2570 nM

# Continued, in another order:
IC50 [1],IC50 [3],IC50 [4],IC50 [5],Structure (SMILES),IC50 [2]
139 nM,301 nM,27 nM,160 nM,O=C1C(=O)c2c(nc3ncccn23)-c2ncccc21,137 nM
85 nM,74 nM,63 nM,,O=C1c2cnncc2C(=O)c2nc3cc(OC(F)(F)F)ccc3nc21,98 nM
97 nM,225 nM,181 nM,118 nM,COc1cccc2c1C(=O)c1c(O)c3c(c(O)c1C2=O)C[C@@](O)(C(=O)CO)C[C@@H]3O[C@H]1C[C@H](N)[C@H](O)[C@H](C)O1 [DOXORUBICIN],112 nM
29 nM,93 nM,39 nM,109 nM,COc1cccc2nc3c(nc12)C(=O)c1cnncc1C3=O,65 nM
286 nM,978 nM,183 nM,745 nM,Cc1cnc2nc3c(n2c1)C(=O)C(=O)c1cccnc1-3,382 nM
122 nM,123 nM,51 nM,112 nM,Cc1cccn2c3c(nc12)-c1ncccc1C(=O)C3=O,86 nM
